Reference: patent publication US20240261224A1, “FORMULATION OF A PAN-JAK INHIBITOR” (KINASET THERAPEUTICS, INC., priority 2022, published 2024)

Experiments:
[1] = APSD, MMAD, FPM and FPF determination (NGI, 90 L/min); assay type: physicochemical; conditions: for Fine particle mass (≤5 μm): in µg (unit assumed)
Method: Cup coating agent was prepared by mixing 150 mL of a mixture of Brij® 35, ethanol, and glycerol with 850 ml of ethanol.
The cup coating agent was prepared, and the NGI was assembled. The collection cups were then coated with cup coating agent and then proceeded to dry. A PALL® A/E 76 mm filter was placed into the back-up filter and attached to the NGI. Approximately 15 mL of diluent was added into the pre-separator insert. The flow rate was set to 90 L/min and the capsule was pierced. One dose was discharged into the NGI by initiating the time-controlled solenoid valve for 2.70 seconds. Sample diluent was added (10 mL for 0.2 mg and 2.0 mg doses and 20 mL for 4.0 mg doses), and the collection cups were agitated on the NGI Gentle Rocker for 10 minutes. The induction port was added 40 mL of sample diluent and was shaken for 1 minute. The pre-separator was added 50 mL of sample diluent and was shaken for 1 minute. The back-up filter was transferred to a crystallizing dish with 20 mL of sample diluent and was then sonicated for 5 minutes. The capsule from each determination was then transferred to a 20 mL volumetric flask and sample diluent was added. The suspension was then shaken and sonicated until fully dissolved. The resulting solution equilibrated under ambient conditions and was then made up to volume. Each Monodose RS01 was placed into an individual plastic bag and 20 mL of recovery solution was added. The bag was shaken by hand for 1 minute and filtered prior to HPLC analysis.

[2] = test system: fractional exhaled nitric oxide (FeNO); assay: Phase 1 Part 3: FeNO reduction in moderate to severe asthma on background ICS/LABA; assay type: in vivo, human; conditions: for Mean Placebo-Corrected % Change from Day 1 Pre-Dose or from Patient's Baseline (FeNO): 4 mg BID (n = 5), Baseline FeNO >35 ppb and blood eosinophils >250 cells/μL; for % subjects achieving FeNO level <25 ppb on Day 10: 4.0 mg BID
Method: A status summary of the phase 1 clinical trial recruitment is shown below in Table 18. Capsules filled with blend 2a were used to achieve a 0.6 mg target dose of Compound I (0.2 mg capsules×3). Capsules filled with blend 4 were used to achieve 2.0 mg, 4.0 mg, 6.0 mg, 8.0 mg, and 12.0 mg target doses of Compound I (2.0 mg capsule×1; 4.0 mg capsule×1; 2.0 mg capsules×3; 4.0 mg capsules×2; and 4.0 mg capsules×3, respectively). Twice daily dosing (BID) was achieved by repeating the preceding regime. For example, an 8.0 mg BID dosing regime is achieved by administering two doses of 4.0 mg capsules×2.
Particular FeNO reduction data from FIG. 9 is highlighted below in Table 25. […] More specifically, subjects with Day 1 pre-dose FeNO levels between 33 and 280 ppb reported reductions greater than 20% by Day 10 and subjects with Day 1 pre-dose FeNO levels ranging from 33 to 118 ppb recorded levels less than 25 ppb by Day 10.
Part 3 involved the administration of a single dose regimen (4 mg BID), to subjects (17 active:6 placebo) with moderate to severe asthma treated with background ISC/LABA therapy, over a 10-day period. Blood samples were collected to enable the measurement of KN-002 concentrations in plasma. The resultant data was used to determine the pharmacokinetic parameters at Day 10 representing the Day on which the final dose was received.

[3] = 2.0 mg capsule, 12 months 30/65
[4] = 2.0 mg capsule, 18 months 30/65
[5] = 2.0 mg capsule, 24 months 30/65
[6] = 4.0 mg capsule, 12 months 30/65

Cn1c(=O)n([C@H]2CCCN(C(=O)CC#N)C2)c2nc(-c3cnn4ccccc34)ccc21 [Compound I, (S)-3-(3-(1-methyl-2-oxo-5-(pyrazolo[1,5-a]pyridine-3-yl)-1H-imidazo[4,5-b]pyridine-3(2H)-yl)piperidin-1-yl)-3-oxopropanenitrile]
MMAD ([1]; 2.0 mg and 4.0 mg formulations aerosolized, Tables 11 and 12): 1.8-2.0 μm
FPF ([1]; 2.0 mg and 4.0 mg formulations, Tables 11 and 12, up to 24 months): 73-78%
FPF % (FPM/Impactor dose) ([1]; 2.0 mg capsule, 1 month 30/65): 75.4%
MMAD ([1]; 2.0 mg capsule, 1 month 30/65): 2.0 μm
Fine particle mass (≤5 μm) ([1]; 2.0 mg capsule, 1 month 30/65): 1143.6
FPF % (FPM/Impactor dose) ([1]; 2.0 mg capsule, 1 month 40/75): 75.9%
MMAD ([1]; 2.0 mg capsule, 1 month 40/75): 1.9 μm
Fine particle mass (≤5 μm) ([1]; 2.0 mg capsule, 1 month 40/75): 1046.6
FPF % (FPM/Impactor dose) ([1]; 2.0 mg capsule, 3 months 30/65): 77.2%
MMAD ([1]; 2.0 mg capsule, 3 months 30/65): 1.9 μm
Fine particle mass (≤5 μm) ([1]; 2.0 mg capsule, 3 months 30/65): 1096.5
FPF % (FPM/Impactor dose) ([1]; 2.0 mg capsule, 3 months 40/75): 77.2%
MMAD ([1]; 2.0 mg capsule, 3 months 40/75): 1.8 μm
Fine particle mass (≤5 μm) ([1]; 2.0 mg capsule, 3 months 40/75): 1090.9
FPF % (FPM/Impactor dose) ([1]; 2.0 mg capsule, 6 months 30/65): 74.9%
MMAD ([1]; 2.0 mg capsule, 6 months 30/65): 1.9 μm
Fine particle mass (≤5 μm) ([1]; 2.0 mg capsule, 6 months 30/65): 1074.3
FPF % (FPM/Impactor dose) ([1]; 2.0 mg capsule, 6 months 40/75): 74.7%
MMAD ([1]; 2.0 mg capsule, 6 months 40/75): 1.9 μm
Fine particle mass (≤5 μm) ([1]; 2.0 mg capsule, 6 months 40/75): 1069.6
FPF % (FPM/Impactor dose) ([1]; 2.0 mg capsule, 9 months 30/65): 76.6%
MMAD ([1]; 2.0 mg capsule, 9 months 30/65): 1.9 μm
Fine particle mass (≤5 μm) ([1]; 2.0 mg capsule, 9 months 30/65): 1075.9
FPF % (FPM/Impactor dose) [1, 3]: 77.3%
MMAD [1, 3]: 1.9 μm
Fine particle mass (≤5 μm) [1, 3]: 1098.4
FPF % (FPM/Impactor dose) [1, 4]: 77.0%
MMAD [1, 4]: 1.9 μm
Fine particle mass (≤5 μm) [1, 4]: 1162.7
FPF % (FPM/Impactor dose) [1, 5]: 78.0%
MMAD [1, 5]: 2.0 μm
Fine particle mass (≤5 μm) [1, 5]: 1083.1
FPF % (FPM/Impactor dose) ([1]; 2.0 mg capsule, Release): 73.5%
MMAD ([1]; 2.0 mg capsule, Release): 2.0 μm
Fine particle mass (≤5 μm) ([1]; 2.0 mg capsule, Release): 1006.7
FPF % (FPM/Impactor dose) ([1]; 4.0 mg capsule, 1 month 30/65): 75.1%
MMAD ([1]; 4.0 mg capsule, 1 month 30/65): 1.8 μm
Fine particle mass (≤5 μm) ([1]; 4.0 mg capsule, 1 month 30/65): 2181.6
FPF % (FPM/Impactor dose) ([1]; 4.0 mg capsule, 1 month 40/75): 73.6%
MMAD ([1]; 4.0 mg capsule, 1 month 40/75): 1.9 μm
Fine particle mass (≤5 μm) ([1]; 4.0 mg capsule, 1 month 40/75): 2130.4
FPF % (FPM/Impactor dose) ([1]; 4.0 mg capsule, 3 months 30/65): 75.4%
MMAD ([1]; 4.0 mg capsule, 3 months 30/65): 1.8 μm
Fine particle mass (≤5 μm) ([1]; 4.0 mg capsule, 3 months 30/65): 2167.8
FPF % (FPM/Impactor dose) ([1]; 4.0 mg capsule, 3 months 40/75): 72.9%
MMAD ([1]; 4.0 mg capsule, 3 months 40/75): 1.9 μm
Fine particle mass (≤5 μm) ([1]; 4.0 mg capsule, 3 months 40/75): 2059.2
FPF % (FPM/Impactor dose) ([1]; 4.0 mg capsule, 6 months 30/65): 73.6%
MMAD ([1]; 4.0 mg capsule, 6 months 30/65): 1.9 μm
Fine particle mass (≤5 μm) ([1]; 4.0 mg capsule, 6 months 30/65): 2098.3
FPF % (FPM/Impactor dose) ([1]; 4.0 mg capsule, 6 months 40/75): 74%
MMAD ([1]; 4.0 mg capsule, 6 months 40/75): 1.8 μm
Fine particle mass (≤5 μm) ([1]; 4.0 mg capsule, 6 months 40/75): 2090
FPF % (FPM/Impactor dose) ([1]; 4.0 mg capsule, 9 months 30/65): 74%
MMAD ([1]; 4.0 mg capsule, 9 months 30/65): 1.8 μm
Fine particle mass (≤5 μm) ([1]; 4.0 mg capsule, 9 months 30/65): 2116.2
FPF % (FPM/Impactor dose) [1, 6]: 76.5%
MMAD [1, 6]: 1.9 μm
Fine particle mass (≤5 μm) [1, 6]: 2182.2
FPF % (FPM/Impactor dose) ([1]; 4.0 mg capsule, 18 months): 75.4%
MMAD ([1]; 4.0 mg capsule, 18 months): 1.9 μm
Fine particle mass (≤5 μm) ([1]; 4.0 mg capsule, 18 months): 2254.8
FPF % (FPM/Impactor dose) ([1]; 4.0 mg capsule, 24 months): 76.7%
MMAD ([1]; 4.0 mg capsule, 24 months): 1.9 μm
Fine particle mass (≤5 μm) ([1]; 4.0 mg capsule, 24 months): 2201.8
FPF % (FPM/Impactor dose) ([1]; 4.0 mg capsule, Release): 75.3%
MMAD ([1]; 4.0 mg capsule, Release): 1.9 μm
Fine particle mass (≤5 μm) ([1]; 4.0 mg capsule, Release): 2157.0
Mean Placebo-Corrected % Change from Day 1 Pre-Dose or from Patient's Baseline (FeNO) ([2]; Day 10 + 3 hrs): −37%
Mean Placebo-Corrected % Change from Day 1 Pre-Dose or from Patient's Baseline (FeNO) ([2]; Day 10 + 6 hrs): −43%
Mean Placebo-Corrected % Change from Day 1 Pre-Dose or from Patient's Baseline (FeNO) ([2]; Day 10 + 12 hrs): −47%
Mean Placebo-Corrected % Change from Day 1 Pre-Dose or from Patient's Baseline (FeNO) ([2]; Day 10 mean): −43%
Mean Placebo-Corrected % Change from Day 1 Pre-Dose or from Patient's Baseline (FeNO) ([2]; Day 10 pre-dose): −44%
% subjects achieving FeNO level <25 ppb on Day 10 ([2]; ITT): 59%
Mean placebo-corrected % FeNO reduction from Day 1 pre-dose ([2]; 4 mg BID, ITT (n = 17), Day 10 + 3 hours): −13.7%
Mean placebo-corrected % FeNO reduction from Day 1 pre-dose ([2]; 4 mg BID, ITT (n = 17), Day 10 + 6 hours): −24.0%
Mean placebo-corrected % FeNO reduction from Day 1 pre-dose ([2]; 4 mg BID, ITT (n = 17), Day 10 + 12 hours): −36.3%
Mean placebo-corrected % FeNO reduction from Day 1 pre-dose ([2]; 4 mg BID, ITT (n = 17), Day 10 mean): −24.2%
Mean placebo-corrected % FeNO reduction from Day 1 pre-dose ([2]; 4 mg BID, ITT (n = 17), Day 10 pre-dose): −22.9%
% subjects achieving FeNO level <25 ppb on Day 10 ([2]; PP (excludes Day 1 pre-dose FeNO <30 ppb)): 52%
Mean placebo-corrected % FeNO reduction from Day 1 pre-dose ([2]; 4 mg BID, PP (n = 15, excludes Day 1 pre-dose FeNO <30 ppb), Day 10 + 3 hours): −24.8%
Mean placebo-corrected % FeNO reduction from Day 1 pre-dose ([2]; 4 mg BID, PP (n = 15, excludes Day 1 pre-dose FeNO <30 ppb), Day 10 + 6 hours): −33.3%
Mean placebo-corrected % FeNO reduction from Day 1 pre-dose ([2]; 4 mg BID, PP (n = 15, excludes Day 1 pre-dose FeNO <30 ppb), Day 10 + 12 hours): −37.0%
Mean placebo-corrected % FeNO reduction from Day 1 pre-dose ([2]; 4 mg BID, PP (n = 15, excludes Day 1 pre-dose FeNO <30 ppb), Day 10 mean): −31.9%
Mean placebo-corrected % FeNO reduction from Day 1 pre-dose ([2]; 4 mg BID, PP (n = 15, excludes Day 1 pre-dose FeNO <30 ppb), Day 10 pre-dose): −32.7%
FeNO reductions by Day 10 ([2]; 4 mg BID, subjects with Day 1 pre-dose FeNO levels between 33 and 280 ppb): greater than 20%
FeNO levels by Day 10 ([2]; 4 mg BID, subjects with Day 1 pre-dose FeNO levels ranging from 33 to 118 ppb): less than 25 ppb
Mean placebo-corrected change in FeNO from Day 1 pre-dose, blood eosinophil subgroup ([2]; Blood eosinophil cut-off ≥0.15 × 10^9/L (n = 16), Day 10 + 3 hours): −26
Mean placebo-corrected change in FeNO from Day 1 pre-dose, blood eosinophil subgroup ([2]; Blood eosinophil cut-off ≥0.15 × 10^9/L (n = 16), Day 10 + 6 hours): −35
Mean placebo-corrected change in FeNO from Day 1 pre-dose, blood eosinophil subgroup ([2]; Blood eosinophil cut-off ≥0.15 × 10^9/L (n = 16), Day 10 + 12 hours): −52
Mean placebo-corrected change in FeNO from Day 1 pre-dose, blood eosinophil subgroup ([2]; Blood eosinophil cut-off ≥0.15 × 10^9/L (n = 16), Day 10 mean): −37
Mean placebo-corrected change in FeNO from Day 1 pre-dose, blood eosinophil subgroup ([2]; Blood eosinophil cut-off ≥0.15 × 10^9/L (n = 16), Day 10 pre-dose): −34
Mean placebo-corrected change in FeNO from Day 1 pre-dose, blood eosinophil subgroup ([2]; Blood eosinophil cut-off ≥0.3 × 10^9/L (n = 11), Day 10 + 3 hours): −44
Mean placebo-corrected change in FeNO from Day 1 pre-dose, blood eosinophil subgroup ([2]; Blood eosinophil cut-off ≥0.3 × 10^9/L (n = 11), Day 10 + 6 hours): −54
Mean placebo-corrected change in FeNO from Day 1 pre-dose, blood eosinophil subgroup ([2]; Blood eosinophil cut-off ≥0.3 × 10^9/L (n = 11), Day 10 + 12 hours): −75
Mean placebo-corrected change in FeNO from Day 1 pre-dose, blood eosinophil subgroup ([2]; Blood eosinophil cut-off ≥0.3 × 10^9/L (n = 11), Day 10 mean): −57
Mean placebo-corrected change in FeNO from Day 1 pre-dose, blood eosinophil subgroup ([2]; Blood eosinophil cut-off ≥0.3 × 10^9/L (n = 11), Day 10 pre-dose): −53
